Reference: patent US8822407B2, “Preparation of conjugates comprising adenine derivatives and allergenic proteins and their use for specific immunotherapy of allengenic diseases” (Universita' Degli Studi di Firenze, priority 2010, dated 2014)

Experiments:
purified CD14+ cells = assay: Cytokine production by purified CD14+ cells (ELISA of supernatants, 36 hrs); assay type: cell-based, human; conditions: Table B, dose 2 μg/ml
Protocol: Circulating mononuclear cells (MNC) are isolated by density gradient (Ficoll-Hypaque) using buffy coats from 14 normal donors (Servizio Immunotrasfusionale e terapie cellulari, Azienda Ospedaliera Universitaria A. Meyer, Firenze). 200×10^6 MNC are separated by the use of a commercial kit (CD14 isolation kit, Miltenyi) by the addition of 400 μl anti-CD14 monoclonal antibody bound to iron beads followed by isolation on magnetic columns (LS column). 50×10^6 monocytes are recovered by positive selection and are extensively washed with calcium and magnesium-free sterile PBS and then seeded in complete medium plus 10% foetal calf serum in 24 flat bottomed plates at the concentration of 1×10^6/ml. […] The plates are incubated for 36 hrs at 37° C. in 5% CO2 humidified atmosphere and the supernatants are collected after centrifugation at 1200 rpm, aliquoted and then stored at −20° C. up to the assay. […]
(§1) For the determination of cytokines and chemokines of the innate immunity, commercial ELISAs have been used: IL-12p40 (Cytoscreen, Biosource Int, Camarillo, Calif.), IFN-alfa (Cytoscreen), TNF-alfa (Cytoscreen), IL-10 (Pharmingen), IL-6 and CXCL10 (R&D System). 100 μl/well of single supernatants are incubated in flat bottomed plates as specified by the productors and the amounts of the single cytokines are expressed as pg/ml on the basis of a reference curve by using recombinant cytokines.

purified BDCA4+ cells = assay: Cytokine production by purified BDCA4+ cells (plasmacytoid dendritic cells), ELISA; assay type: cell-based, human
Protocol: The preparation of purified BDCA4+ cells has been obtained in a similar way starting from MNC of buffy coats of the same 14 healthy donors. […] By positive selection 5×10^6 plasmacytoid dendritic cells (PDCs) are recovered, extensively washed with calcium and magnesium-free sterile PBS and seeded in complete medium plus 10% foetal calf serum in 24-flat bottomed plates at the concentration 1×10^6/ml. […] The plates are incubated for 36 hrs at 37° C. in 5% CO2 humidified atmosphere and the supernatants are collected after centrifugation at 1200 rpm, aliquoted and then stored at −20° C. up to the assay. […]
as §1

human TLR7 = target: T1, human TLR7 (Homo sapiens, UniProt Q9NYK1); assay: TLR7 activation, NF-kB luciferase reporter in transfected HEK293 cells; assay type: cell-based; conditions: human TLR7-encoding plasmid
T1 construct: expressed in transfected cells; host or cells: HEK293 (transient Nucleofection, Amaxa)
T1 sequence (Q9NYK1 27-1049): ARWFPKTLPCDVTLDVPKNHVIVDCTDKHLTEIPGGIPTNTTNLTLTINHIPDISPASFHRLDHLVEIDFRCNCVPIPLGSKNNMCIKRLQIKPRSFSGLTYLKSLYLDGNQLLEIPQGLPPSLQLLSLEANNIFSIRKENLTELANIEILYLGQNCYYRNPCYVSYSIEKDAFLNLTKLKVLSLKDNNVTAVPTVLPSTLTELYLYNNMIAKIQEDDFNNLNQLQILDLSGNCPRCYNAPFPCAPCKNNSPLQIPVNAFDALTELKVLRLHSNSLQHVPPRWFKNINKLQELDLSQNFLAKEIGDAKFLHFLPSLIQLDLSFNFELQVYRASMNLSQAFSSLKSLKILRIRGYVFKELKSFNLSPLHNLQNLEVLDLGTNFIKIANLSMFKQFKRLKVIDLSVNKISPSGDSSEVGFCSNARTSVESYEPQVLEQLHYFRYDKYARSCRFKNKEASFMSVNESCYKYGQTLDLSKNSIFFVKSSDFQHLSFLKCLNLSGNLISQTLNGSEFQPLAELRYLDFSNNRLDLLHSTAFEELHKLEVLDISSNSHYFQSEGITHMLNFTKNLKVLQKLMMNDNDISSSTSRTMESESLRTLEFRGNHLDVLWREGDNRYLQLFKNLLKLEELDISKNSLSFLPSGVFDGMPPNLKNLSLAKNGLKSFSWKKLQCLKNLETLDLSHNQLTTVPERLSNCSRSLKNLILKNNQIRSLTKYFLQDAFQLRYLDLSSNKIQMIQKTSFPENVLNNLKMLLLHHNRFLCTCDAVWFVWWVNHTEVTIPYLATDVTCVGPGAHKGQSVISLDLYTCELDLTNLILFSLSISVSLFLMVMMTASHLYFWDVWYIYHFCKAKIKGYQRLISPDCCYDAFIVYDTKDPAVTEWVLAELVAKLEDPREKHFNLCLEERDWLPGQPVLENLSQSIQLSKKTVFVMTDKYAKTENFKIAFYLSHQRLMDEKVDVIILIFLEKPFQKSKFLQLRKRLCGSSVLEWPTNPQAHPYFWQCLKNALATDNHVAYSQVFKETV
Protocol: HEK293 cells are detached by trypsin from the plastic surface of the culture bottle, extensively washed with calcium and magnesium-free PBS, counted and adjusted at the concentration 1×10^6 cells/tube in polypropylene V-bottomed tubes. After the final wash, the cells are pelleted and 100 μl transfection buffer (Amaxa) is added together with […], TLR7, TLR8 or TLR9-encoding and ELAM-1 promoter NF-kB luciferase reporter plasmids. The mixture thus obtained is transferred in special cuvettes and transient transfection is obtained in a special apparatus which is able to directly introduce genetic material into the nucleus (Nucleofection®, Amaxa GmbH). The cells are then recovered and cultured at 1×10^5/ml in 48-flat bottomed plates in E-MEM medium plus 5% foetal calf serum for 18 hrs. […] Finally the luciferase activity is measured in the cellular lysates by a commercial kit (Promega).

[1] = Table C, Donor #1, R-848, dose not printed in table (2 μg/ml elsewhere in the source)
[2] = Table C, Donor #2, R-848 (2 μg/ml)
[3] = Table F, Donor #1, dose 2 μg/ml
[4] = Table F, Donor #2, dose 2 μg/ml

For `CCOCc1nc2c(N)nc3ccccc3c2n1CC(C)(C)O` [Conj R-848, reference compound], the “IL-6 production (mean ± SE)” value (purified CD14+ cells) was 45.8 ± 15.2 ng/mL, the “IL-10 production (mean ± SE)” value (purified CD14+ cells) was 2.0 ± 0.5 ng/mL and the “IL-12p40 production (mean ± SE)” value (purified CD14+ cells) was 16.9 ± 6.3 ng/mL. The “TNF-alfa production (mean ± SE)” value (purified CD14+ cells) was 16.3 ± 4.9 ng/mL, the IFN-alfa production (purified BDCA4+ cells; [1]) was 3154 pg/mL and the IL-6 production (purified BDCA4+ cells; [1]) was 746 pg/mL. The IL-10 production (purified BDCA4+ cells; [1]) was 1500 pg/mL, the TNF-alfa production (purified BDCA4+ cells; [1]) was 10368 pg/mL and the IFN-alfa production (purified BDCA4+ cells; [2]) was 6187 pg/mL. The IL-6 production (purified BDCA4+ cells; [2]) was 308 pg/mL, the IL-10 production (purified BDCA4+ cells; [2]) was 753 pg/mL and the TNF-alfa production (purified BDCA4+ cells; [2]) was 20990 pg/mL. The “IFN-alfa production (mean ± SE)” value (purified BDCA4+ cells; Table D, dose 2 μg/ml) was 5.6 ± 2.5 ng/mL, the “IL-6 production (mean ± SE)” value (purified BDCA4+ cells; Table D, dose 2 μg/ml) was 7.7 ± 2.6 ng/mL and the “IL-10 production (mean ± SE)” value (purified BDCA4+ cells; Table D, dose 2 μg/ml) was 1.0 ± 0.6 ng/mL. For the same compound, the “TNF-alfa production (mean ± SE)” value (purified BDCA4+ cells; Table D, dose 2 μg/ml) was 5.4 ± 1.4 ng/mL, the IFN-alfa production (purified BDCA4+ cells; [3]) was 1131 pg/mL and the IL-6 production (purified BDCA4+ cells; [3]) was 44302 pg/mL. It also gave an IL-10 production (purified BDCA4+ cells; [3]) of 1864 pg/mL, a TNF-alfa production (purified BDCA4+ cells; [3]) of 4832 pg/mL and an IFN-alfa production (purified BDCA4+ cells; [4]) of 1605 pg/mL. For the same compound, the IL-6 production (purified BDCA4+ cells; [4]) was 37603 pg/mL, the IL-10 production (purified BDCA4+ cells; [4]) was 1305 pg/mL and the TNF-alfa production (purified BDCA4+ cells; [4]) was 6898 pg/mL. The “cytokine production from BDCA4+ cells (in words)” value (purified BDCA4+ cells; text to Tables C and D) was “high levels of IFN-alfa, IL-10 and CXCL10” and the “TLR7 activation (NF-κB luciferase) in transfected HEK293 cells” value (human TLR7) was “able to induce NF-κB expression”.
